Reference: patent US8299209B2, “Pharmaceutical composition comprising cyclic somatostatin analogues” (Novartis AG, priority 2003, dated 2012)
Numbered stars: 1 amine (or outer) side, 2 acyl side, 3 side chain; on linkers, the order of the positions; unused ones are H or OH. Square brackets hold non-standard residues; d marks the D form. Side chains are listed from the residue outwards. Peptide text beside a SMILES is read from it. * marks the point of attachment. ξ: configuration not given here. Ethylenediamine = C(CN[*:2])N[*:1]; dPhg = N[C@@H](C(=O)O)c1ccccc1; ξHyp = O=C(O)C1CC(O)CN1; CO = O=C([*:1])[*:2]; Bn = c1ccc(C*)cc1

What was measured:
[1] = storage stability of the composition; assay type: physicochemical; conditions: in the composition of the invention
Procedure: For example, less than 2.5% of degradation products were found after 4 weeks storage at 60° C. For example, if stored with light protection at 2° C. to 8° C., the compositions of the invention are stable over 24 months.

[2] = target: T1, hsst2 (Homo sapiens, UniProt P30874); assay: competition binding assay on membranes of cells expressing hsst2
T1 construct: expressed in transfected cells
Procedure: (§1) The experiments are carried out in triplicate.

[3] = tested on: growth hormone release; assay: inhibition of growth hormone (GH) release in rats; assay type: in vivo, rat; conditions: s.c. to anaesthetized rats
Procedure: Compound B is administered s.c. to anaesthetized rats. Blood is collected after decapitation 1 h after administration of the compound. The duration of action is estimated on the basis of the inhibition of basal GH secretion 6 h after drug treatment. Hormone levels are measured by RIA 1 h and 6 h after treatment. The ID50-value for the inhibition of the hormone secretion is determined graphically (log-probit) for each experiment and the resulting values are averaged logarithmically.

[4] = target: T2, hsst5 (Homo sapiens, UniProt P35346); assay: competition binding assay on membranes of cells expressing hsst5; conditions: IC50 value in the nMolar range
T2 construct: expressed in transfected cells
Procedure: as §1

[5] = target: hsst1 (Homo sapiens, UniProt P30872)
Procedure: The binding assays may be carried out as disclosed hereunder using membranes from cell lines expressing selectively and stably hsst1, hsst2, hsst3, hsst4 or hsst5, e.g. CHO or COS cells.
Membranes prepared from hsst selective cell lines, e.g. CHO or COS cells stably expressing hsst1 or hsst2 or hsst3 or hsst4 or hsst5 are incubated in triplicate in a total volume of 300 μl at 22° C. for 30 min with increasing concentrations of [^125I-Tyr^11]-SRIF-14 in 10 mmol/l Hepes buffer (pH 7.6) containing 0.5% BSA. The incubation is terminated by rapid filtration and the filters are counted in a counter. Specific binding is total binding minus non-specific binding in the presence of 1 μmol/l somatostatin-14. The experiments are carried out in triplicate. The affinity constant (KD) and number of binding sites are calculated using appropriate statistics and graphical programs.

[6] = tested on: cultured pituitary cells; assay: inhibition of GH release in vitro from cultured pituitary cells; assay type: cell-based; conditions: rat anterior pituitary cells, three hours, 3×10^−10 M growth hormone releasing factor
Procedure: For example, anterior pituitary glands from adult male rats are cut into small pieces and dispersed using 0.1% trypsin in 20 mM HEPES buffer. The dispersed cells are cultured for four days in MEM (Gibco) supplemented with 5% fetal calf serum, 5% horse serum, 1 mM NaHCO3, 2.5 nM dexamethasone, 2.5 mg/ml insulin and 20 U/ml Pen/Strep. On the day of the experiment the attached cells are washed two times with Krebs-Ringer medium buffered with 20 mM HEPES and supplemented with 5 mM glucose and 0.2% BSA. […] The amount of growth hormone released into the medium is measured by RIA.

[7] = target: T3, hsst3 (Homo sapiens, UniProt P32745); assay: competition binding assay on membranes of cells expressing hsst3
T3 construct: expressed in transfected cells
Procedure: as §1

T2 sequence (P35346 whole entry): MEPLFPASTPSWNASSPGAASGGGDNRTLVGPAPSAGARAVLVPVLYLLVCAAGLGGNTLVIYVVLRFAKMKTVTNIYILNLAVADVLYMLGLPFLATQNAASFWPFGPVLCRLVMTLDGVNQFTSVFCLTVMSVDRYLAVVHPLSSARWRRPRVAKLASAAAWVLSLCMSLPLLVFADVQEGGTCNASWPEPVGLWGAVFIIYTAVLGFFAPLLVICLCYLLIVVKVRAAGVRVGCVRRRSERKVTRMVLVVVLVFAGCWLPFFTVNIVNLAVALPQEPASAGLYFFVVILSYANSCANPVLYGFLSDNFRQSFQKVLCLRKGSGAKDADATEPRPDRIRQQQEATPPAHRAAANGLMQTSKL
hsst1, sequence (P30872 whole entry): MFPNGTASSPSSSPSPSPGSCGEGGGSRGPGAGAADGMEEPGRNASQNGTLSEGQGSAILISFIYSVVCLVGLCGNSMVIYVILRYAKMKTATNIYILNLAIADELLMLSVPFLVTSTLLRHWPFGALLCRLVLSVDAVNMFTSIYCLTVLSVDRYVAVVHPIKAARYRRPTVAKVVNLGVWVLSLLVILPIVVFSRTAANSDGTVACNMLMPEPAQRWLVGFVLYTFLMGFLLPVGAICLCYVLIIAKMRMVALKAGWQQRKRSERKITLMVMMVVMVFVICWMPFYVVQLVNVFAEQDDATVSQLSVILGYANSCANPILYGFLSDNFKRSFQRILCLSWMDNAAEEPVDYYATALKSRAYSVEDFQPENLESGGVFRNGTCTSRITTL
T3 sequence (P32745 whole entry): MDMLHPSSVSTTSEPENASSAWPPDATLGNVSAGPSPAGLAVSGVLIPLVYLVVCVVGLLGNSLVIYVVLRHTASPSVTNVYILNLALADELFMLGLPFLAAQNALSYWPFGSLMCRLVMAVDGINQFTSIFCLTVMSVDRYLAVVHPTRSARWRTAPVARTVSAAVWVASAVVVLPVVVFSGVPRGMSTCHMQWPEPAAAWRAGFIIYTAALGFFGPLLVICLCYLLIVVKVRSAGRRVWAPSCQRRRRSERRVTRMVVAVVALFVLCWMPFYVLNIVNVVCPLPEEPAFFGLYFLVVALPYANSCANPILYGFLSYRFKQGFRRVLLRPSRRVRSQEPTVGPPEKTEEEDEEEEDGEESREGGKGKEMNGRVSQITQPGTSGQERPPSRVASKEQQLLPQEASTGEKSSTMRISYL
T1 sequence (P30874 whole entry): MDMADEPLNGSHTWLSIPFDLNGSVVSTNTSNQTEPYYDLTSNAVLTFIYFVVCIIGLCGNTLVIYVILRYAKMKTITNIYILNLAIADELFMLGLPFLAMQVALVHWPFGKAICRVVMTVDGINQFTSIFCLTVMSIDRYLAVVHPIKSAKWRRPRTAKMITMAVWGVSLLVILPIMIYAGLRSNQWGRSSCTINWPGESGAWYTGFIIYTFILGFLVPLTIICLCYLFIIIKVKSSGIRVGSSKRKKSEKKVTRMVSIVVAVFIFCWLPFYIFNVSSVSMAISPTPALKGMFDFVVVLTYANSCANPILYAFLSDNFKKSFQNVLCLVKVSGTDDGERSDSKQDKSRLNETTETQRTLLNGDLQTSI

stability (in words) [1]	Compound	binding affinity towards hsst2 (in words) [2]	inhibition of growth hormone release in vivo [3]	binding affinity towards hsst5 (in words) [4]	binding affinity towards hsst1 (in words) [5]	inhibition of GH release in vitro [6]	binding affinity towards hsst3 (in words) [7]
Particularly good stability	cyclo[{4-(NH2—C2H4—NH—CO—O—)Pro}-Phg-DTrp-Lys-Tyr(4-Bzl)-Phe] [diaspartate salt of Compound A]	–	–	–	–	–	–
–	NCCCC[C@@H]1NC(=O)[C@@H](Cc2c[nH]c3ccccc23)NC(=O)[C@@H](c2ccccc2)NC(=O)C2CC(OC(=O)NCCN)CN2C(=O)[C@H](Cc2ccccc2)NC(=O)[C@H](Cc2ccc(OCc3ccccc3)cc2)NC1=O (stereo partly drawn) [Compound B, cyclo[{4-(NH2—C2H4—NH—CO—O—)Pro}-DPhg-DTrp-Lys-Tyr(4-Bzl)-Phe]] (cyclo([ξHyp]([CO-Ethylenediamine])[dPhg][dW]KY(Bn)F))	no significant binding affinity	inhibits growth hormone release	good binding affinity	no significant binding affinity	GH-release inhibiting activity	low binding affinity
